According to PMC9330635, “Halogenated Pyrrolopyrimidines with Low MIC on Staphylococcus aureus and Synergistic Effects with an Antimicrobial Peptide” (Antibiotics, 2022):
≈ marks a conversion by molar mass, not a printed value. Where two headings read alike, the source gives them in different places.

How the values were obtained:
E. coli TMPK [1] = biological target: T1, E. coli TMPK (Escherichia coli, UniProt P0A720); design: method as in doi:10.1002/slct.202103796; conditions: previous study; read-out: IC50 against E. coli TMPK; cited from earlier work
T1 construct: purchased ProFoldin TMK100KE

S. aureus (ATCC29213) = assay: MIC by broth microdilution, S. aureus; assay type: cell-based, Staphylococcus aureus; conditions: Staphylococcus aureus
Protocol: (§1) In this study, we have, therefore, altered our strategy and used minimal inhibitory concentration assays to identify and improve antibacterial agents. A total of 10 pyrrolopyrimidines with variation of the 4-amino group were assayed for their MIC in E. coli (MG1655) and S. aureus (ATCC29213) using the broth microdilution method. Subsequently, the compounds were also counter-screened for their inhibition of human EGFR.
(§2) The MIC of compound 1–21 towards Escherichia coli (MG1655) and Staphylococcus aureus (ATCC29213) was determined following the standards that were recommended by the Clinical and Laboratory Standards Institute (CLSI) for the broth microdilution method. Briefly, the bacterial suspensions were adjusted to 0.5 McFarland standard (~1 × 10^8 colony forming units (CFU)/mL) and diluted 1:200 in Cation-Adjusted Mueller-Hinton Broth (CAMHB, […], […]). The suspension was subsequently added to polypropylene microtiter plates (100 µL/well, ~5 × 10^4 CFU/well) that were already prepared with different concentrations of the various halogenated fused pyrimidines (11 µL/well, two-fold serial dilutions). The plates were incubated at 37 °C overnight before inspection for visible growth and determination of the MIC values.

S. aureus = assay: MIC towards S. aureus in combination with the peptide betatide; assay type: cell-based, Staphylococcus aureus; conditions: betatide 8 mg/L (half its MIC)
Protocol: The concentration of betatide was 8 mg/L, which corresponds to half the MIC concentration.
as §2

human EGFR = biological target: T2, human EGFR (Homo sapiens, UniProt P00533); assay: Enzymatic EGFR (ErbB1) inhibition, Z'-LYTE; assay type: biochemical; conditions: for inhibition at 0.1 µM: 100 nM compound, ATP equal to KM; for IC50: average of 2 titration curves, ATP equal to apparent KM, read-out: IC50 towards EGFR
T2 construct: purchased Invitrogen (ThermoFisher), assay service
Protocol: The compounds were supplied in a 10 mM DMSO solution, and enzymatic EGFR (ErbB1) inhibition potency was determined by Invitrogen (ThermoFisher) using their Z’-LYTE® assay technology. The compounds were tested for their inhibitory activity at 100 nM in duplicates. The IC50 values that were reported for 1 and 5 are based on the average of 2 titration curves (20 data points), and were calculated from activity data with a four-parameter logistic model using SigmaPlot (Windows Version 12.0 from Systat Software, Inc., Palo Alto, CA, USA). Unless stated otherwise, the ATP concentration that was used was equal to apparent KM.

E. coli (MG1655) = assay: MIC by broth microdilution, E. coli; assay type: cell-based, Escherichia coli; conditions: for MIC: Escherichia coli, E. coli MG1655, broth microdilution
Protocol: as §1, §2

[2] = test system: panel of 50 human kinases (EGFR most inhibited); assay: Kinase panel, Z'-LYTE, 50 human kinases; assay type: biochemical
Protocol: As the starting point of this study was the EGFR inhibitor PKI-166 (1), there is an obvious risk of kinase off-target effects for the bromo derivative 5. Therefore, we profiled 5 towards a panel of 50 human kinases. […] Based on our previous experience, it is assumed that the EGFR inhibiting activity of 5 is too low to cause in vivo effects.
The compounds were supplied in a 10 mM DMSO solution, and enzymatic kinase inhibition potency was determined by ThermoFisher (Invitrogen, Waltham, MA, USA) using their Z’-LYTE® assay technology, at 500 nM in duplicates. The ATP concentration that was used was equal to Km, except when this service was not provided, and other concentrations had to be used.

E. coli TMPK [3] = biological target: T1, E. coli TMPK; assay: E. coli TMPK assay (ProFoldin kit); assay type: biochemical; conditions: enzymatic; read-out: IC50 towards E. coli TMPK
Protocol: (§3) The inhibition of EcTMPK was determined by Profoldin using the E. coli Thymidylate Kinase Assay Kit Plus (ProFoldin, Catalog No. TMK100KE, Hudson, MA, USA), where dTMP was phosphorylated by ATP that was catalyzed by TMPK. The assay was run in 96-well black plates at 36 °C. The formation of ADP was measured by adding a fluorescent dye and measuring the fluorescence emission at 535 nm after excitation at 485 nm. The readout was corrected for emission from the assay cocktail and DMSO. An ADP control assay was also performed to correct for possible interference with ADP detection. Single-point inhibitions were measured at 8.3 µM inhibitor concentrations. The IC50-values were determined from a similar assay, where 2-fold dilution series from […] were used. The assay towards the human enzyme was run similarly but using the Human Thymidylate Kinase Assay Kit Plus-500 (Catalog Number: HTMK500KE, ProFoldin, Hudson, MA, USA).

human TMPK = biological target: T3, human TMPK (Homo sapiens, UniProt P23919); assay: Human TMPK assay (ProFoldin kit); assay type: biochemical; conditions: enzymatic; read-out: IC50 towards human TMPK
T3 construct: purchased ProFoldin HTMK500KE
T3 sequence (P23919 1-212): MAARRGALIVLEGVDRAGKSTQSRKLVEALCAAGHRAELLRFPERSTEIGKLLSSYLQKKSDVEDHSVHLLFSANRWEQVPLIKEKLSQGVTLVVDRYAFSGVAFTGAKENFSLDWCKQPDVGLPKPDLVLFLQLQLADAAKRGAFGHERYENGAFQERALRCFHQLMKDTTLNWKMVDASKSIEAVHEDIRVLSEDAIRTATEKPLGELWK
Protocol: as §3

[4] = ATCC29213, S. aureus, single agent (Table 3), read-out: Single Comp. MIC
[5] = S. aureus ATCC29213, broth microdilution, read-out: S. aureus MIC

T2 sequence (P00533 25-1210): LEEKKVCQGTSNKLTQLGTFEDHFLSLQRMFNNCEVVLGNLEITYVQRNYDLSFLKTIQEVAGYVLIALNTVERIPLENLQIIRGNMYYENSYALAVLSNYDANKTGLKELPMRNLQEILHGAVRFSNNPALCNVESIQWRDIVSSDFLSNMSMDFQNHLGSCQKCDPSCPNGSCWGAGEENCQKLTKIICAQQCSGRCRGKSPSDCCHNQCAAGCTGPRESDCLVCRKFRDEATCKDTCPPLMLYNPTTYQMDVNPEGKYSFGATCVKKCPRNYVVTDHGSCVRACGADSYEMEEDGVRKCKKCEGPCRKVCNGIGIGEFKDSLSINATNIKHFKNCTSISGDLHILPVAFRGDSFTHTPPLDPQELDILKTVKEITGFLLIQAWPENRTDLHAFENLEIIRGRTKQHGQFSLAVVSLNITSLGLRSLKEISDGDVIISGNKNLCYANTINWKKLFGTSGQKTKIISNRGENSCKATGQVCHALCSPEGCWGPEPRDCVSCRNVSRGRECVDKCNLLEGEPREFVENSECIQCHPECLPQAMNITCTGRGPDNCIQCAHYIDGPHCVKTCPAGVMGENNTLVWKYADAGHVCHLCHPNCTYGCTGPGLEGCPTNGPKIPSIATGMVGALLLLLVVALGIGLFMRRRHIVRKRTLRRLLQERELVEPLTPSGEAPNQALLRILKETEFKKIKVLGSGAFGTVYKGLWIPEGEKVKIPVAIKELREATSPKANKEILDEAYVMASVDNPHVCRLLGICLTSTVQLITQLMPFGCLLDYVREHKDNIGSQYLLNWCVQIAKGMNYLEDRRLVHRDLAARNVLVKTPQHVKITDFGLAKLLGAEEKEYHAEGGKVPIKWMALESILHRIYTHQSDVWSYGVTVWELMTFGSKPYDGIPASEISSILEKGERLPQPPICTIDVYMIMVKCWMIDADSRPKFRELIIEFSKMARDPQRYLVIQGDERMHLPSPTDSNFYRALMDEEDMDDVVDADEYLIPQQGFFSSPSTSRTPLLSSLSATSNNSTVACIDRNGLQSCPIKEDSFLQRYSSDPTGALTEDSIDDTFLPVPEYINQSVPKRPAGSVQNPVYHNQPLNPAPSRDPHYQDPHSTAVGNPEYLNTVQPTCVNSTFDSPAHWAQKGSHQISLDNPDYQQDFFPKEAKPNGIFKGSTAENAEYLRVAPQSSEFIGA
T1 sequence (P0A720 whole entry): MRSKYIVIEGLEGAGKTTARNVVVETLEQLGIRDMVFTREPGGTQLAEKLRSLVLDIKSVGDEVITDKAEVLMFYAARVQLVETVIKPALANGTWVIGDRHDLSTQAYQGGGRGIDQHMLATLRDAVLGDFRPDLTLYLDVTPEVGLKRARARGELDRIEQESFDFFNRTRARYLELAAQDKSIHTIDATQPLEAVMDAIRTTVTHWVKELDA

SMILES	IC50 (E. coli TMPK [1])	MIC (S. aureus (ATCC29213); [4])	MIC (S. aureus (ATCC29213); [5])	Combination with Betatide MIC (S. aureus)	inhibition at 0.1 µM (human EGFR)	IC50 (human EGFR)	MIC (E. coli (MG1655))	Activity towards E. coli in culture (in words) (E. coli (MG1655); culture, MIC assay)	EGFR inhibition in kinase panel ([2]; 500 nM test concentration)	Inhibition of all the other kinases of the panel ([2]; 500 nM, 50 human kinases, other than EGFR)	IC50 (E. coli TMPK [3])	IC50 (human TMPK)
C[C@@H](Nc1ncnc2[nH]c(-c3ccc(O)cc3)cc12)c1ccccc1 [Compound 1, (R)-4-(4-((1-Phenylethyl)amino)-7H-pyrrolo[2,3-d]pyrimidin-6-yl)phenol, reference compound]	15 µM	64 µg/mL (≈ 194 µM)	64 µg/mL (≈ 194 µM)	8 µg/mL	100%	< 0.001 µM	> 128 µg/mL	did not possess any activity	–	–	–	–
C[C@@H](Nc1ncnc2[nH]c(-c3ccc(O)cc3)cc12)c1ccc(Br)cc1 [Compound 5, (R)-4-(4-((1-(4-Bromophenyl)ethyl)amino)-7H-pyrrolo[2,3-d]pyrimidin-6-yl)phenol]	–	8 µg/mL (≈ 19.5 µM)	8 µg/mL (≈ 19.5 µM)	1 µg/mL	81%	0.025 µM	> 128 µg/mL	–	91%	very low inhibition	5 µM	> 100 µM
